Measurements published in ChEMBL document CHEMBL1649076, “Discovery of 5-chloro-N2-[(1S)-1-(5-fluoropyrimidin-2-yl)ethyl]-N4-(5-methyl-1H-pyrazol-3-yl)pyrimidine-2,4-diamine (AZD1480) as a novel inhibitor of the Jak/Stat pathway” (J Med Chem, 2011).
Activity calls are given as the source filed them. The rule behind the calls is not given here.

How the values were obtained:
[1] = tested on: Mus musculus; experiment: Antitumor activity against mouse BA/F3 cells expressing Tel-JAK2 xenografted in NCr mouse assessed as reduction of phosphorylated Stat5 level in spleen at 10 mg/kg, po after 12 hrs by Western blotting; assay type: functional, organism-based; set-up: dose 10 mg/kg; settings: BaF3
[2] = tested on: SW-620; experiment: Cell cycle arrest in human SW620 cells assessed as accumulation at G2/M phase at 3.3 uM after 24 hrs by flow cytometry; assay type: functional, cell-based
[3] = tested on: BaF3; experiment: Antitumor activity against mouse BA/F3 cells expressing Tel-JAK2-luc xenografted in NCr mouse assessed as reduction of bioluminescent signal at 50 mg/kg, po bid measured on day 9 post-tumor cell implantation relative to control; assay type: functional
[4] = target: T1, Signal transducer and activator of transcription 5A (Homo sapiens) (UniProt P42229); settings: HEL, 0.3 uM
T1 sequence (whole entry): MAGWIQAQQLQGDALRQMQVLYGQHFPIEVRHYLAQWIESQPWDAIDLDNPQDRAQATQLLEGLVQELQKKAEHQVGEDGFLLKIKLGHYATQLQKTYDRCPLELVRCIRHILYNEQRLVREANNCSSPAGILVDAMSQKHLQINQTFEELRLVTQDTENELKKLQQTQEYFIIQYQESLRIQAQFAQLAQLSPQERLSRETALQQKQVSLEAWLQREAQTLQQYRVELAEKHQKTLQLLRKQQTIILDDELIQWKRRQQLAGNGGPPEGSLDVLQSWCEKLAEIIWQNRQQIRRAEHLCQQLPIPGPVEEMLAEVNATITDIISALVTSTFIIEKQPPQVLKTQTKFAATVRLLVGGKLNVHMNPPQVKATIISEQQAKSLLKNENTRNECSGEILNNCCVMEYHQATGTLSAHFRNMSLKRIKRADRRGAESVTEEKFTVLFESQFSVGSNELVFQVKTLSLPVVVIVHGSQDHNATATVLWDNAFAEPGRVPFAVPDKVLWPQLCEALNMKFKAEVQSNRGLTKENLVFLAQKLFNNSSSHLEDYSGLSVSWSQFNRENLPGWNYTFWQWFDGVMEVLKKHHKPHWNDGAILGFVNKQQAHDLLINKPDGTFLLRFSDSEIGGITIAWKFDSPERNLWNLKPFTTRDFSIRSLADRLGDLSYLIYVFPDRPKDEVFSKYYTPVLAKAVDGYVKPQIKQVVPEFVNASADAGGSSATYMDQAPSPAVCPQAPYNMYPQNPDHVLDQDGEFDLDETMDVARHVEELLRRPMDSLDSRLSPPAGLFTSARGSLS
Description: Inhibition of Stat5 phosphorylation in human HEL cells at 0.3 uM after 5 mins by Western blotting

[5] = tested on: Mus musculus; experiment: Antitumor activity against mouse BA/F3 cells expressing Tel-JAK2 xenografted in NCr mouse assessed as reduction of phosphorylated Stat5 level in spleen at 30 mg/kg, po after 12 hrs by Western blotting; assay type: functional, organism-based; set-up: dose 30 mg/kg; settings: BaF3
[6] = target: Signal transducer and activator of transcription 3 (Homo sapiens) (UniProt P40763); settings: HEL, 0.3 uM
Description: Inhibition of Stat3 phosphorylation in human HEL cells at 0.3 uM after 5 mins by Western blotting

[7] = tested on: Mus musculus; experiment: Antitumor activity against mouse BA/F3 cells expressing Tel-JAK2 xenografted in po dosed NCr mouse assessed as reduction of phosphorylated Stat5 level in spleen by Western blotting; assay type: functional, organism-based; settings: BaF3

Sequence of Signal transducer and activator of transcription 3 (Homo sapiens) (P40763 whole entry): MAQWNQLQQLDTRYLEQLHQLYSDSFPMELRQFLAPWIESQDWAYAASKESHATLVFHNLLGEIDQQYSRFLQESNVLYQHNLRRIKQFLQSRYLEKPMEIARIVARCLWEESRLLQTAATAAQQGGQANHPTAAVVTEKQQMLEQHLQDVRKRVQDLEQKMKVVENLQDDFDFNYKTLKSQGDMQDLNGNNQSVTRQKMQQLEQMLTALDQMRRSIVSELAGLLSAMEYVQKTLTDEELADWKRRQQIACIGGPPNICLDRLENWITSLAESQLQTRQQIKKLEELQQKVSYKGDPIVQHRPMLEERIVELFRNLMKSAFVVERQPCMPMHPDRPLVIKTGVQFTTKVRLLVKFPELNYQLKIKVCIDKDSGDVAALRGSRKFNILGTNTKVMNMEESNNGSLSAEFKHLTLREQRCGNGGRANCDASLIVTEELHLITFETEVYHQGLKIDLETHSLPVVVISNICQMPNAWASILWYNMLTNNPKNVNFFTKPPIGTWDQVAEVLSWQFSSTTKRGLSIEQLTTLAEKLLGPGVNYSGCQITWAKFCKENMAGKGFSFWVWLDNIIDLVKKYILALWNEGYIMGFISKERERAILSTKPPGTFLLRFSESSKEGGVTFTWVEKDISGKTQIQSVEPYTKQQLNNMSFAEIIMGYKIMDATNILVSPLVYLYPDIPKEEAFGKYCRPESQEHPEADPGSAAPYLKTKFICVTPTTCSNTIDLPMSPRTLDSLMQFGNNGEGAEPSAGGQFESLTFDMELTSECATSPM

inhibition [4]: Active
inhibition [6]: Active
SMILES: Cc1cc(Nc2nc(N[C@@H](C)c3ncc(F)cn3)ncc2Cl)[nH]n1
Activity [1]: inactive
Activity [2]: Active
Activity [3]: Dose-dependent effect
Activity [5]: Active
Activity [7]: Dose-dependent effect
